In ChEMBL document CHEMBL1151864, “Substrate based peptide aldehyde inhibits bacterial type I signal peptidase” (Bioorg Med Chem Lett, 2009):
Values after ≈ are worked out from the molar mass of the structure shown. Active and inactive are the calls of the source. No cut-off for these calls is given here. Residues, ends and D or L forms follow the SMILES beside them. *: point of attachment. Decanoyl = CCCCCCCCCC(=O)*

What was measured:
Staphylococcus aureus [1] = test: Inhibition of Staphylococcus aureus type I signal peptidase SpsB-mediated processing of internally quenched fluorescent synthetic peptide substrate at 200 uM
[2] = target: Signal peptidase I (Escherichia coli K-12) (UniProt P00803); test: (§1) Inhibition of Escherichia coli type I signal peptidase lepB
[3] = Inhibition of Staphylococcus aureus type I signal peptidase SpsB-mediated processing of internally quenched fluorescent synthetic peptide substrate
Staphylococcus aureus [4] = test: Antimicrobial activity against Staphylococcus aureus by broth microdilution method; format: functional
[5] = test system: Staphylococcus epidermidis; test: Antimicrobial activity against Staphylococcus epidermidis by broth microdilution method; format: functional
Escherichia coli = test: Antimicrobial activity against Escherichia coli by broth microdilution method; format: functional
Signal peptidase I = Signal peptidase I (Escherichia coli K-12, UniProt P00803); test: as §1
Sequence of Signal peptidase I (P00803 whole entry): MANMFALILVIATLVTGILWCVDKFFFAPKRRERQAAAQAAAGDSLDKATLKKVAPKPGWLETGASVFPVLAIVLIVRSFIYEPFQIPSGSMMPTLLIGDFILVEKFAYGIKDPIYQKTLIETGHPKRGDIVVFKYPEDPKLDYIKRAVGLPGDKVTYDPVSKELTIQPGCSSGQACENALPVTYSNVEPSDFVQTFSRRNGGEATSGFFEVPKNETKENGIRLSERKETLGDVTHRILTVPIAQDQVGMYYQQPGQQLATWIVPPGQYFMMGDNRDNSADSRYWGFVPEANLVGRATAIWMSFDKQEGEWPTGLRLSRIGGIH

Sequence of Signal peptidase I (Escherichia coli K-12) (P00803 whole entry): as above

SMILES	inhibition (Staphylococcus aureus [1]) [%]	Activity [2]	IC50 [3] [µM]	further results
CCCCCCCCCC(=O)N[C@@H](C)C(=O)N[C@@H](CCCCN)C(=O)N[C@@H](C)C(=O)N1CCC[C@H]1C(=O)N[C@@H](CO)C(=O)N[C@@H](CCCCN)C(=O)N[C@H](C(=O)N[C@@H](CC(=O)O)C(=O)N[C@@H](CC(=O)O)C(=O)O)[C@@H](C)CC (Decanoyl-AKAPSKIDD-OH)	0	inactive	> 200	–
CCCCCCCCCC(=O)N[C@@H](CC(C)C)C(=O)N[C@H](C(=O)N1CCC[C@H]1C(=O)N[C@H](C(=O)N[C@@H](C)C(=O)N[C@@H](CCCCN)C(=O)N[C@@H](C)C(=O)N1CCC[C@H]1C(=O)N[C@@H](CO)C(=O)O)[C@@H](C)O)[C@@H](C)O (Decanoyl-LTPTAKAPS-OH)	92.9	inactive	22.5	–
CCCCCCCCCC(=O)N[C@@H](CC(C)C)C(=O)N[C@H](C(=O)N1CCC[C@H]1C(=O)N[C@H](C(=O)N[C@@H](C)C(=O)N[C@@H](CCCCN)C(=O)N[C@@H](C)C(=O)N1CCC[C@H]1C(=O)N[C@@H](CO)C(=O)N[C@@H](CCCCN)C(=O)O)[C@@H](C)O)[C@@H](C)O (Decanoyl-LTPTAKAPSK-OH)	108	inactive	1	–
CCCCCCCCCC(=O)N[C@@H](CC(C)C)C(=O)N[C@H](C(=O)N1CCC[C@H]1C(=O)N[C@H](C(=O)N[C@@H](C)C(=O)N[C@@H](CCCCN)C(=O)N[C@@H](C)C(=O)N1CCC[C@H]1C(=O)N[C@@H](CO)C(=O)N[C@@H](CCCCN)C(=O)N[C@H](C(=O)O)[C@@H](C)CC)[C@@H](C)O)[C@@H](C)O (Decanoyl-LTPTAKAPSKI-OH)	107	inactive	2.6	–
CCCCCCCCCC(=O)N[C@@H](CC(C)C)C(=O)N[C@H](C(=O)N1CCC[C@H]1C(=O)N[C@H](C(=O)N[C@@H](C)C(=O)N[C@@H](CCCCN)C(=O)N[C@@H](C)C(=O)N1CCC[C@H]1C(=O)N[C@@H](CO)C(=O)N[C@@H](CCCCN)C(=O)N[C@H](C(=O)N[C@@H](CC(=O)O)C(=O)O)[C@@H](C)CC)[C@@H](C)O)[C@@H](C)O (Decanoyl-LTPTAKAPSKID-OH)	108	inactive	5	–
CCCCCCCCCC(=O)N[C@@H](CC(C)C)C(=O)N[C@H](C(=O)N1CCC[C@H]1C(=O)N[C@H](C(=O)N[C@@H](C)C(=O)N[C@@H](CCCCN)C(=O)N[C@@H](C)C(=O)N1CCC[C@H]1C(=O)N[C@@H](CO)C(=O)N[C@@H](CCCCN)C(=O)N[C@H](C(=O)N[C@@H](CC(=O)O)C(=O)N[C@@H](CC(=O)O)C(=O)O)[C@@H](C)CC)[C@@H](C)O)[C@@H](C)O (Decanoyl-LTPTAKAPSKIDD-OH)	107	inactive	0.8	Activity (Staphylococcus aureus [4]): inactive; Activity [5]: inactive; Activity (Escherichia coli): inactive
CCCCCCCCCC(=O)N1CCC[C@H]1C(=O)N[C@H](C(=O)N[C@@H](C)C(=O)N[C@@H](CCCCN)C(=O)N[C@@H](C)C(=O)N1CCC[C@H]1C(=O)N[C@@H](CO)C(=O)N[C@@H](CCCCN)C(=O)N[C@H](C(=O)N[C@@H](CC(=O)O)C(=O)N[C@@H](CC(=O)O)C(=O)O)[C@@H](C)CC)[C@@H](C)O (Decanoyl-PTAKAPSKIDD-OH)	106	inactive	3.2	–
CCCCCCCCCC(=O)N1CCC[C@H]1C(=O)N[C@H](C(=O)N[C@@H](C)C(=O)N[C@@H](CC(N)=O)C(=O)N[C@@H](C)C=O)[C@@H](C)O (Decanoyl-PTANA-aldehyde)	–	–	0.09	MIC (Staphylococcus aureus [4]): 125 µg/mL (≈ 205 µM); MIC [5]: 500 µg/mL (≈ 819 µM); IC50 (Signal peptidase I): 13.4 µM; MIC (Escherichia coli): > 500 µg/mL
CCCCCCCCCC(=O)N[C@H](C(=O)N[C@@H](C)C(=O)N[C@@H](CCCCN)C(=O)N[C@@H](C)C(=O)N1CCC[C@H]1C(=O)N[C@@H](CO)C(=O)N[C@@H](CCCCN)C(=O)N[C@H](C(=O)N[C@@H](CC(=O)O)C(=O)N[C@@H](CC(=O)O)C(=O)O)[C@@H](C)CC)[C@@H](C)O (Decanoyl-TAKAPSKIDD-OH)	98	inactive	30.8	–
CCCCCCCCCC(=O)N[C@H](C(=O)N1CCC[C@H]1C(=O)N[C@H](C(=O)N[C@@H](C)C(=O)N[C@@H](CCCCN)C(=O)N[C@@H](C)C(=O)N1CCC[C@H]1C(=O)N[C@@H](CO)C(=O)N[C@@H](CCCCN)C(=O)N[C@H](C(=O)N[C@@H](CC(=O)O)C(=O)N[C@@H](CC(=O)O)C(=O)O)[C@@H](C)CC)[C@@H](C)O)[C@@H](C)O (Decanoyl-TPTAKAPSKIDD-OH)	106	inactive	4.8	–
CC[C@H](C)[C@H](NC(=O)[C@H](CCCCN)NC(=O)[C@H](CO)NC(=O)[C@@H]1CCCN1C(=O)[C@H](C)NC(=O)[C@H](CCCCN)NC(=O)[C@H](C)NC(=O)[C@@H](NC(=O)[C@@H]1CCCN1C(=O)[C@@H](NC(=O)[C@@H](N)CC(C)C)[C@@H](C)O)[C@@H](C)O)C(=O)N[C@@H](CC(=O)O)C(=O)N[C@@H](CC(=O)O)C(=O)O (H-LTPTAKAPSKIDD-OH)	21.6	inactive	> 200	–
